Experimental findings from the OPERA property sets (Mansouri et al. 2018) are described below.

Settings in one data set: not given
Compound `CCCCCCCCCCCCCCCCCCCCCl` had a log10 vapour pressure (mmHg) of -5.62.

`Clc1ccc(-c2ccc(Cl)c(Cl)c2)cc1` had a log10 Henry constant (atm·m³/mol) of -4.

`Brc1cc(Br)c(-c2c(Br)cc(Br)cc2Br)c(Br)c1` came in with a log10 Koc (L/kg) of 4.87.

Regarding `CC(C)(C)CC(C)(C)c1ccc(O)c(Cc2ccc(Cl)cc2Cl)c1`, the melting point (as a rule, the temperature of the solid-liquid transition) was determined as 78 °C.

`BrC(Br)C(Br)(Br)Br` registered a melting point of 56.5 °C.

On to `O=[N+]([O-])c1ccc(O)c(O)c1`, for which the melting point stood at 175 °C.

On to `Cc1ccc(S(=O)(=O)O)c(C)c1`, for which the melting point was determined as 57 °C and the ready biodegradability result is “readily biodegradable”.

As for `CC(C)(C(N)=O)n1nnc2ccccc21`, the melting point turned out to be 187 °C.

As for `CCC1CCCS1` (centres undefined), the boiling point (as a rule, the temperature at which the vapour pressure of the liquid equals the pressure above it) is 157 °C.

The compound `Cc1cccc(NC=O)c1` gave a boiling point of 290 °C.

As to `C=CCCCCCCCCCCC`, the boiling point amounted to 233 °C, the log10 vapour pressure (mmHg) was -1.2 and the melting point was -13 °C.

In the case of `CC(C)C(C(=O)OC(C#N)c1cccc(Oc2ccc(Br)cc2)c1)c1ccc(OC(F)F)cc1` (centres undefined), the log10 vapour pressure (mmHg) is -8.92.

With `C[C@H](Oc1ccccc1)C(=O)O`, the boiling point came to 266 °C and the melting point came to 118 °C.

For the compound `CCC(Cc1ccccc1)c1ccccc1` (centres undefined), the boiling point was found to be 290 °C.

Consider `CC(C)(C)OCCO`, for which the ready biodegradability result is recorded as “not readily biodegradable”.

Consider `Oc1nc(O)nc(O)n1`, for which the melting point stood at 360 °C and the ready biodegradability entry is reported as “readily biodegradable”.

Turning to `COc1ccc([N+](=O)[O-])cc1`, the boiling point was 274 °C, the melting point was 54 °C and the ready biodegradability result is “not readily biodegradable”.

Take `C/C=C/C=C/C(=O)O`: the ready biodegradability result is listed as “readily biodegradable”.

Consider `CC(C)(C)Cl`, for which the boiling point was 50.5 °C, the melting point is -26 °C and the ready biodegradability entry is reported as “not readily biodegradable”.

As to `CCCCCCCCCCCCCCCCCCCCCCCCCCCCCCCCCCC`, the boiling point is 490 °C, the log10 vapour pressure (mmHg) is -11.3, the melting point was 75 °C and the ready biodegradability result was “readily biodegradable”.

`CCCCCF`: the boiling point was 62.8 °C, the log10 vapour pressure (mmHg) came to 2.27 and the melting point was -120 °C.

Take `FC(F)=C(Cl)Cl`: the boiling point stood at 19 °C and the melting point was -116 °C.

Compound `O=C(O)C(F)(F)C(F)F` had a boiling point of 134 °C.

In turn, `Cc1ccc(-c2ccccc2)cc1` came in with a boiling point of 268 °C, a log10 biodegradation half-life (days) of 1.58 and a melting point of 49.5 °C.

`O=C(O)C1CCCCCC1` returned a boiling point of 259 °C.

In turn, `BrC(Br)(Br)c1ccc2ccccc2n1` had a melting point of 128 °C.

In turn, `CC(C)c1ccc(C(C)C)c(C(C)C)c1` registered a boiling point of 244 °C.

In the case of `COC(=O)CC#N`, the boiling point came out at 200 °C, the log10 vapour pressure (mmHg) is -0.86 and the melting point was -22.5 °C.

Take `FC(F)(Br)C(F)(F)C(F)(F)C(F)(F)C(F)(F)C(F)(F)C(F)(F)C(F)(F)Br`: the boiling point came out at 180 °C.

Regarding `O=C(O)COc1cccc2ccccc12`, the melting point is 196 °C.

In turn, `CCCN(CCC)CCC` came in with a boiling point of 156 °C, a log10 vapour pressure (mmHg) of 0.179 and a melting point of -93.5 °C.

`C=CC[C@]1(O)CC[C@H]2[C@@H]3CCC4=CCCC[C@@H]4[C@H]3CC[C@@]21C` registered a melting point of 80 °C.

`C[Si]1(C)O[Si](C)(C)O[Si](C)(C)O[Si](C)(C)O[Si](C)(C)O[Si](C)(C)O[Si](C)(C)O[Si](C)(C)O1` gave a boiling point of 290 °C, a log10 vapour pressure (mmHg) of -2.54 and a melting point of 31.5 °C.

For the compound `NC(=O)COC(=O)c1ccccc1`, the melting point worked out at 121 °C.

`CC(C)CC(=O)C(C)C` registered a boiling point of 148 °C.

As for `C=CC(=O)OCCOC(=O)C=C`, the log10 vapour pressure (mmHg) was -1.18.

With `CCC1NC(=O)c2cc(S(N)(=O)=O)c(Cl)cc2N1` (centres undefined), the melting point was found to be 251 °C.

Consider `O=C(O)CCCc1ccc(N(CCCl)CCCl)cc1`, for which the melting point was 65 °C.

For `CCCCCCCCCCCF`, the log10 vapour pressure (mmHg) is -0.682.

In the case of `CC(Br)C(Br)CBr` (centres undefined), the boiling point is 220 °C and the melting point was -19 °C.

Take `CCI`: the boiling point is 72.5 °C, the log10 Koa was determined as 2.59, the log10 vapour pressure (mmHg) was determined as 2.13 and the melting point was -111 °C.

Compound `O=P(O)(O)CN(CP(=O)(O)O)CP(=O)(O)O` returned a boiling point of 480 °C and a log10 vapour pressure (mmHg) of -11.2.

`CC(=O)Cc1c[nH]c2ccccc12` yielded a melting point of 116 °C.

With `CCCC/C=C\C(C)(C)O`, the boiling point was 177 °C.

In the case of `CC1(C)[C@H](C=C(Cl)Cl)[C@H]1C(=O)OCc1cccc(Oc2ccccc2)c1`, the ready biodegradability result is “not readily biodegradable”.

For `CC(C)(C(=O)O)C(C)(C)C(=O)O`, the melting point turned out to be 200 °C.

As to `CC(C)(C)S(=O)(=O)O`, the melting point is 113 °C.

Compound `Nc1ccccc1I` displayed a melting point of 56.5 °C.

On to `CC(C)CC(C)N` (centres undefined), for which the boiling point stood at 109 °C and the log10 Henry constant (atm·m³/mol) was -4.51.

`C=CCOc1ccccc1` came in with a boiling point of 192 °C.

With `CCOC(=O)/C=C\C(=O)OCC`, the boiling point amounted to 218 °C, the log10 vapour pressure (mmHg) was -0.979 and the melting point is -3.65 °C.

As to `CCCC[C@@H](O)CC`, the log10 vapour pressure (mmHg) was -0.131.

In the case of `CCCCOC(=O)CC(C)=O`, the melting point was -35.6 °C and the ready biodegradability result is recorded as “readily biodegradable”.

Compound `C/C=C/C(=O)c1ccccc1` gave a melting point of 20.5 °C.

`CN1C2CCC1CC(OC(=O)c1ccccc1)C2` (centres undefined) gave a melting point of 49 °C.

Turning to `NC(N)=O`, the log10 Koc (L/kg) turned out to be 0.15, the log10 vapour pressure (mmHg) was -4.92 and the ready biodegradability result is “readily biodegradable”.

On to `NC(=O)CC[C@H](N)C(=O)O`, for which the ready biodegradability result is given as “readily biodegradable”.

With `COc1cccc(Nc2ccccc2)c1`, the melting point was determined as 73 °C.

`c1ccc2c(c1)NCCN2` had a boiling point of 289 °C and a melting point of 99 °C.

Regarding `Clc1ccccc1Cl`, the boiling point is 180 °C, the log10 Henry constant (atm·m³/mol) is -2.72, the log10 Koa was 4.36 and the log10 Koc (L/kg) was determined as 2.56. Besides, the log10 vapour pressure (mmHg) was 0.134, the melting point is -16.7 °C and the ready biodegradability result is given as “not readily biodegradable”.

Regarding `NCCCCCCCCCCN`, the melting point came out at 62.5 °C.

Regarding `CCCCCCCCCCCC(O)CC` (centres undefined), the melting point amounted to 31.5 °C.

In turn, `CCC(=O)CO` gave a boiling point of 160 °C.

Compound `C#CCOS(=O)OC1CCCCC1Oc1ccc(C(C)(C)C)cc1` (centres undefined) returned a log10 Koc (L/kg) of 3.6 and a log10 vapour pressure (mmHg) of -6.52.

Take `O=C(O)CCc1ccco1`: the boiling point is 229 °C and the melting point is 58 °C.

Regarding `CC[N+](=O)[O-]`, the boiling point was 114 °C, the log10 Henry constant (atm·m³/mol) was -4.32, the log10 Koa came out at 2.88 and the log10 vapour pressure (mmHg) was found to be 1.32. The same compound registered a melting point of -89.5 °C.

`CCCCc1cccc2ccccc12` had a boiling point of 289 °C and a melting point of -19.8 °C.

`O[C@H]1[C@H](O)[C@@H](O)[C@H](O)[C@@H](O)[C@H]1O` (racemic) gave a melting point of 237 °C.

Compound `CC(C)(C)c1ccccc1O` registered a boiling point of 223 °C, a log10 vapour pressure (mmHg) of -1.05 and a melting point of -6.8 °C.

Staying with this data set, now noted: fish.
`Brc1cc(Br)c(-c2c(Br)cc(Br)cc2Br)c(Br)c1` registered a log10 BCF of 4.66 and a log10 biotransformation half-life (days) of 2.66.

In the case of `C=CCCCCCCCCCCC`, the log10 biotransformation half-life (days) came to 0.73.

Turning to `Oc1nc(O)nc(O)n1`, the log10 BCF was -0.3.

On to `COc1ccc([N+](=O)[O-])cc1`, for which the log10 BCF was determined as 1.08 and the log10 biotransformation half-life (days) was -0.95.

`Brc1cc(Oc2c(Br)c(Br)c(Br)c(Br)c2Br)c(Br)c(Br)c1Br` showed a log10 BCF of 5.44.

Compound `C=C(C)CCCCCCCCC` gave a log10 biotransformation half-life (days) of 0.17.

For the compound `Clc1ccccc1Cl`, the log10 BCF is 2.43 and the log10 biotransformation half-life (days) came out at 0.5.
